Test results as given in EP1247803A2, “Indolinone compounds suitable for modulation of protein kinases” (Sugen, Inc., priority 1996, dated 1998).

Assays:
[1] = target: PDGF-R (Homo sapiens, UniProt P09619); test: PDGF-R ELISA; type: cell-based
Excerpt: A PDGF-R ELISA is described in International Patent Publication No. WO 96/40116, published December 19, 1996 by Tang et al.

[2] = system: MET; test: MET biochemical kinase assay; set-up: species or system human; concentration or dose not given beside the values
Procedure, shortened: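 Capture ELISA: anti-rabbit Fc coat, rabbit anti-MET cytoplasmic domain pAb, lysate MET captured, washed. Compound + kinase buffer (ATP, divalent metals). Readout anti-pTyr-HRP/TMB, colorimetric.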

[3] = target: T1, EGFR (Homo sapiens, UniProt P00533); test: EGFR ELISA assay (in vitro kinase activity, EGFR captured from A431 cell lysate); type: biochemical; set-up: concentration or dose not given beside the values
T1 construct: Add 7 ug A431 cell lysate per well (EGFR source); endogenous in cells; host or cells: A431
Procedure, shortened: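 EGFR from A431 lysate was captured on anti-EGFR antibody-coated plates and preincubated with compounds for 30 min. Autophosphorylation ran 5 min with 3 uM ATP and 5 mM MnCl2 (final), stopped with 20 mM EDTA. Phosphotyrosine was detected by anti-pTyr ELISA with ABTS/H2O2, read at 410 nm.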

T1 sequence (P00533 25-1210): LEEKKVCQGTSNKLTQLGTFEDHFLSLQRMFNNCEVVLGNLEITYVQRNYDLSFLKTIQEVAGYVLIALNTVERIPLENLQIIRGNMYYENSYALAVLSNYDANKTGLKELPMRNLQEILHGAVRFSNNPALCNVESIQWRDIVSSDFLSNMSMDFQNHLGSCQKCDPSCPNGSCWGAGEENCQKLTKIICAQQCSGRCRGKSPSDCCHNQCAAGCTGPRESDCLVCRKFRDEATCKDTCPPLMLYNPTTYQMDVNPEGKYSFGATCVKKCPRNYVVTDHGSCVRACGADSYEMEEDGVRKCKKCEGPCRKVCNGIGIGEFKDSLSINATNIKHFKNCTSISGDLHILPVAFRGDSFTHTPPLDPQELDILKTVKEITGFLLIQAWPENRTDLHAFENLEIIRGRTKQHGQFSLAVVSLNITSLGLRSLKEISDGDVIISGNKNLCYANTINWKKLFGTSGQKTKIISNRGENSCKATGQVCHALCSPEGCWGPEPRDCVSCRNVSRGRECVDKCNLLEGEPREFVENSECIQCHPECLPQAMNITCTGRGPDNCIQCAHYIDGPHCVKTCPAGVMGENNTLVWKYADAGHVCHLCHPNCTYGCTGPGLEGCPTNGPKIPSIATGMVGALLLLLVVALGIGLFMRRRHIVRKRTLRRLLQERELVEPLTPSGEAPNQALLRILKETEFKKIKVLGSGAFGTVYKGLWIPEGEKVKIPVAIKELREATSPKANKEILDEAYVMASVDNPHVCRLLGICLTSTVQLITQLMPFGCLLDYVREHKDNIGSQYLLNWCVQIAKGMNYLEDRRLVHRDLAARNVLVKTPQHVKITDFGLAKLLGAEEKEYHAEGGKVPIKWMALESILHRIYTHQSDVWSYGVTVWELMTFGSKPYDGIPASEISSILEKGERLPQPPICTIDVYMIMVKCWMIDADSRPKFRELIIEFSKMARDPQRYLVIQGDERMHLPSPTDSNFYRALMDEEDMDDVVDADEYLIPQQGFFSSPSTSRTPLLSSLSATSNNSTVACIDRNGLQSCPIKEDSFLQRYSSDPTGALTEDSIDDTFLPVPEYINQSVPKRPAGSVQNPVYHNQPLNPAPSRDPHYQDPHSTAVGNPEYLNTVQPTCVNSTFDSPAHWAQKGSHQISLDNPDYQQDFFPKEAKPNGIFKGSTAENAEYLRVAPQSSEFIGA
Chain of PDGF-R (P09619 33-1106, species assumed): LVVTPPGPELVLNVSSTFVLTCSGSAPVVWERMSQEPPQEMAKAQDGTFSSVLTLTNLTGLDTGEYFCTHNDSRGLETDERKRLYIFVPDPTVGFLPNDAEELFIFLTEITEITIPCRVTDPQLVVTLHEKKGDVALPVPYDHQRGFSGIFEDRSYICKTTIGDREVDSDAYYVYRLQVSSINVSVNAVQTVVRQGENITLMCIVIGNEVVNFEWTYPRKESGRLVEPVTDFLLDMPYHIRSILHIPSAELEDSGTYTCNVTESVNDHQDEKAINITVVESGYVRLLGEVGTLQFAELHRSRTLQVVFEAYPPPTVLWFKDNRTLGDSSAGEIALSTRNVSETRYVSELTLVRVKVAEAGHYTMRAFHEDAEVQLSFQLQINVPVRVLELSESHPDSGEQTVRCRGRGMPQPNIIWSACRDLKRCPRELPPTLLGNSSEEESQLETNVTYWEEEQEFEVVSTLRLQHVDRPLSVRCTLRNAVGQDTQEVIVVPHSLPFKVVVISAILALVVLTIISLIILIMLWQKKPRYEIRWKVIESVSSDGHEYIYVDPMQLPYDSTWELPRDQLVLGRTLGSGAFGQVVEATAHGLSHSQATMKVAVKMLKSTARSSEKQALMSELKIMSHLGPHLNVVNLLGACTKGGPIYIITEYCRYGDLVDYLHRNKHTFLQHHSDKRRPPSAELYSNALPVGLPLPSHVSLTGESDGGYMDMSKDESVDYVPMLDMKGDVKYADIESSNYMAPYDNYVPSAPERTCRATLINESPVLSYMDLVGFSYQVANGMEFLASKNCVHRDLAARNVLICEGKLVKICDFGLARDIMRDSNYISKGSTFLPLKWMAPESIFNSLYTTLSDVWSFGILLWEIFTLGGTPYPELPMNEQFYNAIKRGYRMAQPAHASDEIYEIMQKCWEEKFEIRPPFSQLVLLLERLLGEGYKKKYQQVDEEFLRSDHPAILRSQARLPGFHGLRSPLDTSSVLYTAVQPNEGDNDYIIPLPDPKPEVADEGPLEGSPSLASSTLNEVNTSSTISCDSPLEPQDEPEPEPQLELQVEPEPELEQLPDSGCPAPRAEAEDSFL

| SMILES | PDGF Kinase %Inhibition [1] [%] | Met Kinase % Inhibition [2] [%] | Biochem EGFR %Inhibition [3] [%] |
| --- | --- | --- | --- |
| Cc1c(Br)ccc2c1C(=Cc1ccc([N+](=O)[O-])cc1)C(=O)N2 [10734/C06] | -0.2 | 48.3 | 18.4 |
| CC(C)(C)c1cc(C=C2C(=O)Nc3ccc(S(=O)(=O)N4CCOCC4)cc32)cc(I)c1OCc1ccccc1 [10733/F02] | 3.8 | 71.6 | 11.3 |
| O=C1Nc2ccc(I)cc2C1=Cc1ccc([N+](=O)[O-])cc1 [10734/B06] | 0.2 | 91.2 | 54.0 |
| CNS(=O)(=O)c1ccc2c(c1)C(=Cc1ccc(Br)s1)C(=O)N2 [10734/D11] | 17.0 | 33.9 | 14.6 |
| CCN(CC)c1ccc(C=C2C(=O)Nc3ccc(S(=O)(=O)NC)cc32)c(O)c1 [10734/D05] | 8.2 | 55.0 | -9.6 |
| COc1c(O)ccc(C=C2C(=O)Nc3ccc(S(=O)(=O)Nc4ccc(C(F)(F)F)cc4)cc32)c1[N+](=O)[O-] [10733/E11] | 15.9 | 71.8 | 31.6 |
| O=C1Nc2c(Br)cc(Br)cc2C1=Cc1ccc([N+](=O)[O-])cc1 [10734/A06] | -9.9 | 46.9 | -6.4 |
| COc1c([N+](=O)[O-])cc(C=C2C(=O)Nc3ccc(S(=O)(=O)N4CCOCC4)cc32)cc1C(C)(C)C [10733/F03] | 24.5 | 24.2 | -3.6 |
| CCN(CC)c1ccc(C=C2C(=O)Nc3c(Br)cc(Br)cc32)c(O)c1 [10734/A05] | 2.9 | 69.9 | 22.6 |
| CNS(=O)(=O)c1ccc2c(c1)C(=Cc1cc(Br)cc(Br)c1O)C(=O)N2 [10734/D07] | 28.1 | 92.0 | 51.1 |
| COc1cc(Br)cc(C=C2C(=O)Nc3ccc(S(=O)(=O)N4CCOCC4)cc32)c1O [10733/F08] | -32.4 | 66.6 | 17.2 |
| O=C1Nc2ccc(S(=O)(=O)Nc3ccc(C(F)(F)F)cc3)cc2C1=Cc1cc(Cl)cc(Cl)c1O [10734/E03] | 27.2 | 99.3 | 55.0 |
| CC(C)(C)c1cc(C=C2C(=O)Nc3ccc(CCCl)cc32)cc(I)c1OCc1ccccc1 [10733/G02] | -7.6 | 64.5 | -6.2 |
| CC(C)(C)c1cc(C=C2C(=O)Nc3ccc(S(=O)(=O)N4CCOCC4)cc32)cc(C(C)(C)C)c1OCc1ccccc1 [10733/F05] | -25.1 | 65.1 | 84.6 |
| O=C1Nc2ccc(S(=O)(=O)Nc3ccc(C(F)(F)F)cc3)cc2C1=Cc1cc(Br)ccc1O [10733/E09] | 35.8 | 62.6 | 72.4 |
| CNS(=O)(=O)c1ccc2c(c1)C(=Cc1cc(Cl)cc(Cl)c1O)C(=O)N2 [10734/D03] | 24.1 | 78.6 | 19.6 |

| SMILES | PDGF Kinase %Inhibition [1] [%] | Met Kinase % Inhibition [2] [%] | Biochem EGFR %Inhibition [3] [%] |
| --- | --- | --- | --- |
| CNS(=O)(=O)c1ccc2c(c1)C(=Cc1cc(Cl)ccc1O)C(=O)N2 [10734/D04] | 13.5 | 46.9 | -10.7 |
| O=C1Nc2c(Br)cc(Br)cc2C1=Cc1cccc(F)c1O [10734/A08] | 9.1 | 71.5 | 6.8 |
| COc1c(C(C)(C)C)cc(C=C2C(=O)Nc3ccc(S(=O)(=O)N4CCOCC4)cc32)cc1C(C)(C)C [10733/F04] | -28.7 | 65.1 | 76.3 |
| O=C1Nc2ccc(S(=O)(=O)Nc3ccc(C(F)(F)F)cc3)cc2C1=Cc1cc([N+](=O)[O-])ccc1O [10733/E10] | 10.3 | 52.8 | 31.3 |
| COc1c(C)cc(C=C2C(=O)Nc3ccc(CCCl)cc32)cc1C [10733/G06] | 0.1 | 0.8 | 5.2 |
| Cc1c(Br)ccc2c1C(=Cc1cc(Cl)cc(Cl)c1O)C(=O)N2 [10734/C03] | 24.5 | 88.2 | 48.6 |
| CCOc1cccc(C=C2C(=O)Nc3ccc(Br)c(C)c32)c1O [10734/C02] | 36.0 | 78.6 | -6.7 |
| CCOc1cccc(C=C2C(=O)Nc3ccc(S(=O)(=O)Nc4ccc(C(F)(F)F)cc4)cc32)c1O [10734/E02] | 50.1 | 66.9 | -10.8 |
| COc1c(C(C)(C)C)cc(C=C2C(=O)Nc3ccc(CCCl)cc32)cc1C(C)(C)C [10733/G04] | 11.9 | 20.3 | 10.6 |
| COc1c(O)ccc(C=C2C(=O)Nc3ccc(S(=O)(=O)N4CCOCC4)cc32)c1[N+](=O)[O-] [10733/F11] | -17.8 | 44.4 | 0.6 |
| CC(C)(C)c1cc(C=C2C(=O)Nc3ccc(S(=O)(=O)Nc4ccc(C(F)(F)F)cc4)cc32)cc(C(C)(C)C)c1OCc1ccccc1 [10733/E05] | -33.2 | 2.9 | 58.3 |
| COc1c(C(C)(C)C)cc(C=C2C(=O)Nc3ccc(S(=O)(=O)Nc4ccc(C(F)(F)F)cc4)cc32)cc1C(C)(C)C [10733/E04] | -13.7 | 17.5 | 45.4 |
| Cc1c(Br)ccc2c1C(=Cc1cc(Br)cc(Br)c1O)C(=O)N2 [10734/C07] | 32.0 | 96.8 | 41.0 |
| COc1c(C)cc(C=C2C(=O)Nc3ccc(S(=O)(=O)N4CCOCC4)cc32)cc1C [10733/F06] | -4.8 | 20.9 | 17.8 |
| CC(C)(C)c1ccc(C=C2C(=O)Nc3ccc(I)cc32)cc1 [10734/B10] | 7.7 | 82.6 | 60.7 |
| CNS(=O)(=O)c1ccc2c(c1)C(=Cc1ccc(C(C)(C)C)cc1)C(=O)N2 [10734/D10] | 9.9 | 20.6 | -4.4 |
